From patent US8044022B2, “Hyaluronic acid binding peptides enhance host defense against pathogenic bacteria” (priority 2005, dated 2011)

Key:
Acapsular GAS = test: Fluorometry binding of FITC-conjugated peptide to capsule-deficient GAS; parameters: species or system Group A Streptococcus
Description: (§1) Bacterial strains: GAS strain 950771 is a moderately encapsulated M3 clinical isolate from a child with post-varicella necrotizing fasciitis and sepsis, and an isogenic capsule deficient mutant, 188, derived from 950771. GAS were grown in Todd-Hewitt broth (Difco) to mid-exponential phase OD650 of 0.15 at 37° C. for all experiments. Commercially available trypticase-soy agar medium supplemented with 5% vol/vol sheep blood (BAP)(PML Microbiologicals, British Columbia, Canada) were used for all plate cultures. S. equi s(ATCC 53185) and P. multocida (ATCC 11039) were purchased from ATCC and cultured as recommended. Briefly, S. equi was cultured in Todd-Hewitt broth and S. uberis and P. multocida were cultured in Brain heart infusion (Difco) to OD 650 of 0.15 at 37° C. Quantitative cultures were performed in parallel with each experiment to verify the multiplicity of infection (MOI) of the inoculum.
(§2) Binding of HABP to HA and HA-encapsulated bacteria: To assess whether HABP are able to associate specifically with the GAS capsule, bacteria were cultured to mid-log phase, for maximal HA capsule expression, and incubated with either 10 μg/ml of FITC-conjugated HABP01 or SCRM, with purified HA at 1 mg/ml, as a positive control, or an isogenic mutant strain of GAS deficient in HA capsule, as a negative control. A GAS-specific antibody was used to control for the number of bacteria per well.

GAS [1] = test: Opsonophagocytic assay with human neutrophils; format: cell-based, Group A Streptococcus; conditions: 50 μg/ml, 2 hours incubation with human neutrophils, 10% absorbed human serum
Description: Encapsulated GAS are resistant to killing by neutrophils in opsonophagocytic assays in the absence of antibodies that bind the bacterial surface. HABPs binding to the bacterial surface may facilitate neutrophil cytotoxicity. Opsonophagocytic assays were performed wherein GAS were incubated with 50 μg/ml of SCRM, HABP01 or HABP35 and mixed with human neutrophils in medium containing 10% absorbed human serum. Aliquots (25 μl) for quantitative culture were withdrawn immediately after mixing neutrophil with GAS and after 2 hr incubation at 37° C. The log increase or decrease in CFU's was calculated. After 2 hours of incubation, there was about a 1.5 log increase in CFU's for GAS treated with PBS or SCRM.

[2] = tested on: Wild Type GAS (HA encapsulated); test: Fluorometry binding of FITC-conjugated peptide to encapsulated GAS; parameters: species or system Group A Streptococcus
Description: as §1, §2

S. aureus strain PS80 = test: Mouse model of S. aureus surgical wound infection; format: in vivo, C57BL6 mice; conditions: 100 μg into wound at time of challenge with 10^2 CFU; 3 days later
Description: Bacterial strains. S. aureus strain PS80 (serotype 8) was obtained from the American Type Culture collection (#27700) and is a potent inducer of intraabdominal abscess formation. S. aureus COL is a methicillin resistant strain that produces a serotype 5 capsule. Staphylococci were cultivated for 24 h at 37° C. on Columbia agar (Difco Laboratories, Detroit, Mich.) supplemented with 2% NaCl.
Mouse model of S. aureus wound infection. Mice (C57BL6, male, 6-8 wk old) were obtained from Jackson Laboratories (Bar Harbor, Me.). Groups of mice (N=4/group/experiment) were anesthetized with 100 mg/kg ketamine and 10 mg/kg xylazine, their right thighs were shaved, and the surgical area was disinfected with iodine and 70% ethanol. An incision was made in the skin to expose the thigh muscle, and a 1-cm incision was made with a scalpel into the thigh muscle to the depth of the bone. The muscle was then closed with one 4-0 silk suture, and 10 μl of a S. aureus suspension ranging in dose from 10^2 to 10^4 CFU was introduced into the incision under the suture. The skin was closed with four additional Prolene sutures. The mice were euthanized at 3 days post-surgery. The wounded muscle tissue was excised, weighed (˜0.08 g), and homogenized in 1 ml of tryptic soy broth. Serial dilutions of the homogenates were plated in duplicate and results were expressed as CFU/g tissue. Peptides were administered to animals in two ways. For most experiments, HABPs were solubilized in PBS and administered with a pipet into the wound in a 10 μl volume following challenge with bacteria. A 100 μg dose was used for most experiments. For therapeutic studies, peptide was administered via a 1 ml tuberculin syringe fitted with a 25 gauge needle in a 0.25 ml volume injected into the thigh muscle containing the wound distal from the incision site.
Gross pathology and histologic analysis of host response. […] Histological examination of these wounds confirmed these findings. Muscle tissue was harvested from mice at designated intervals post-surgery, fixed in 10% buffered formalin, and mounted in paraffin; 5 to 6-μm sections were cut and stained with hematoxylin and eosin for microscopic examination. […] The cellular infiltrate was primarily comprised of PMNs and fibrin.
Statistical analyses. All animal experiments were performed at least two times and the data pooled. Comparison of S. aureus CFU/g tissue was made by the Welch modification of the unpaired Student t test (InStat, GraphPad Software, San Diego, Calif.).

[3] = Fluorometry binding of FITC-conjugated peptide to purified HA in well; parameters: species or system rooster
Description: Lyophilized synthetic peptides were resuspended in PBS pH7.4 prior to use in either in vitro or in vivo experiments. Fluorescein conjugation of HABP01 and SCRM was performed using 5,6 carboxyfluorescein, succinimidyl ester (5,6 FAM) (Molecular Probes, Portland, Oreg.) as per manufacturer's instructions and separated on a Sephadex G-25 column (Amersham, Piscataway, N.J.). Purified, high molecular weight rooster comb HA (Sigma-Aldrich, St Louis, Mo.) was used as a positive control for BP binding.
as §2

GAS [4] = test: Mouse soft tissue invasive infection model; parameters: species or system CBA/J mice; conditions: in vivo
Description: Mouse soft tissue invasive infection model: Female 4-6-week-old CBA/J mice (Jackson Laboratory, […].) were inoculated with GAS. Briefly, mice were anesthetized and the hair was shaved off the right flank. Approximately 1.5×10^5 cfu of GAS from an early log-phase broth culture were suspended in 50 μl of sterile PBS or HABP and inoculated just under the surface of the skin with a 27-guage needle. The animals were observed twice daily for 3-5 days. Serial tail vein bleeds were performed daily and 50 μl of blood was inoculated on BAP for enumeration of viable bacterial CFU and incubated at 37° C. for 24 hours. Animals surviving the experiment or appearing moribund at any time were euthanized and the spleen removed using aseptic technique. The spleen was homogenized in 1 ml of THB and 100 μl of homogenate plated on BAP. In some experiments animals were euthanized at various time points during infection and tissue sections from the inoculation site were prepared for histopathological examination.
HABP-treated mice repeatedly indicated a 24-hour to 48-hour delay in dissemination of bacteria from the inoculation site compared to controls. […] The delayed dissemination correlated with a reduced mortality 24 hours after infection, but once dissemination occurred, HABP-treated mice died rapidly. Histopathologic analysis of the infection site indicated typical lateral GAS dissemination. […]

[5] = fluorometry, HABP35 also confocal microscopy, data not shown

Q: For “HKSVSRHTSMRHSTM [SCRM, reference compound]”, which “binding to unencapsulated GAS (in words)” value (Acapsular GAS; [5]) is on record?
A: The value was “did not bind”.

Q: And the Relative binding (Acapsular GAS; substrate in well: Acapsular GAS, 10 μg/ml FITC-conjugated peptide)?
A: The Relative binding was 1490 ± 40 relative fluorescent units.

Q: What about the “log increase in CFU's” value (GAS [1]) of the same sequence?
A: The value was roughly 1.5 log.

Q: What about the “binding to encapsulated GAS (in words)” value [2, 5] of the same sequence?
A: The value was “did not bind”.

Q: And the Relative binding ([2]; substrate in well: Wild Type GAS, 10 μg/ml FITC-conjugated peptide)?
A: The Relative binding was 1550 ± 30 relative fluorescent units.

Q: What about the “bacterial burden at the wound site compared with PBS” value (S. aureus strain PS80) of the same sequence?
A: Its value is “did not have this effect”.

Q: What about the “binding to purified HA (in words)” value ([3]; fluorometry) of the same sequence?
A: The value was “did not bind”.

Q: What about the Relative binding ([3]; substrate in well: HA (1 mg/ml), 10 μg/ml FITC-conjugated peptide) of the same sequence?
A: The Relative binding was 1520 ± 20 relative fluorescent units.

Q: And the “PMNs at the infection site (confocal microscopy of tissue sections)” value (GAS [4])?
A: Its value is “numerous polymorphonuclear leukocytes”.
